# Laboratory results published in the supplement of paper PMC10307832.
# Assays:
# Assay in all cases: relative viability (nuclei count vs DMSO), 5 days (fraction); higher = more cells survive
# A-427 = system: A-427
# Outline: (§1)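 A single step with final 0.05% Triton X-100, 1% formaldehyde and 1 ug/ml Hoechst fixed the cells and stained nuclei 5 days after treatment. Lung cancer cell lines in 1536-well plates had been treated by pin tool the day after seeding with one drug alone or a fixed anchor-drug dose plus five library-drug doses (not always all listed) in √10 steps, and nuclei were counted on 4× images. Relative viability is the ratio of nuclei in treated wells to nuclei in vehicle wells, taken as the median of duplicate plates.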
# EPLC-272H = system: EPLC-272H
# Outline: as §1
# HCC-15 = system: HCC-15
# Outline: as §1
# LC-2-ad = system: LC-2-ad
# Outline: as §1
# LK-2 = system: LK-2
# Outline: as §1
# NCI-H1734 = system: NCI-H1734
# Outline: as §1
# NCI-H1793 = system: NCI-H1793
# Outline: as §1
# NCI-H1915 = system: NCI-H1915
# Outline: as §1
# NCI-H1944 = system: NCI-H1944
# Outline: as §1
# NCI-H2009 = system: NCI-H2009
# Outline: as §1
# NCI-H2023 = system: NCI-H2023
# Outline: as §1
# NCI-H2342 = system: NCI-H2342
# Outline: as §1
# NCI-H2347 = system: NCI-H2347
# Outline: as §1
# NCI-H322M = system: NCI-H322M
# Outline: as §1
# NCI-H358 = system: NCI-H358
# Outline: as §1
# NCI-H441 = system: NCI-H441
# Outline: as §1
# NCI-H522 = system: NCI-H522
# Outline: as §1
# NCI-H647 = system: NCI-H647
# Outline: as §1
# NCI-H838 = system: NCI-H838
# Outline: as §1
# RERF-LC-KJ = system: RERF-LC-KJ
# Outline: as §1
# SW 1573 = system: SW 1573
# Outline: as §1
# UMC-11 = system: UMC-11
# Outline: as §1
smiles,measurement,setting,value
CCNC(=O)c1noc(-c2cc(C(C)C)c(O)cc2O)c1-c1ccc(CN2CCOCC2)cc1 [Luminespib] + Nc1nc2[nH]cc(CCc3ccc(C(=O)N[C@@H](CCC(=O)O)C(=O)O)cc3)c2c(=O)[nH]1 [Pemetrexed] (partner 0.2 µM),relative viability,A-427; first compound 0.002 µM,0.958
same,relative viability,A-427; first compound 0.006325 µM,0.25
same,relative viability,A-427; first compound 0.02 µM,0.812
same,relative viability,A-427; first compound 0.06325 µM,0.495
same,relative viability,A-427; first compound 0.2 µM,0.256
same,relative viability,EPLC-272H; first compound 0.002 µM,0.41
same,relative viability,EPLC-272H; first compound 0.006325 µM,0.266
same,relative viability,EPLC-272H; first compound 0.02 µM,0.335
same,relative viability,EPLC-272H; first compound 0.06325 µM,0.133
same,relative viability,EPLC-272H; first compound 0.2 µM,0.113
same,relative viability,HCC-15; first compound 0.002 µM,0.219
same,relative viability,HCC-15; first compound 0.006325 µM,0.236
same,relative viability,HCC-15; first compound 0.02 µM,0.214
same,relative viability,HCC-15; first compound 0.06325 µM,0.193
same,relative viability,HCC-15; first compound 0.2 µM,0.137
same,relative viability,LC-2-ad; first compound 0.002 µM,0.251
same,relative viability,LC-2-ad; first compound 0.006325 µM,0.298
same,relative viability,LC-2-ad; first compound 0.02 µM,0.26
same,relative viability,LC-2-ad; first compound 0.06325 µM,0.213
same,relative viability,LC-2-ad; first compound 0.2 µM,0.205
same,relative viability,LK-2; first compound 0.002 µM,0.299
same,relative viability,LK-2; first compound 0.006325 µM,0.159
same,relative viability,LK-2; first compound 0.02 µM,0.221
same,relative viability,LK-2; first compound 0.06325 µM,0.0902
same,relative viability,LK-2; first compound 0.2 µM,0.0524
same,relative viability,NCI-H1734; first compound 0.002 µM,0.475
same,relative viability,NCI-H1734; first compound 0.006325 µM,0.406
same,relative viability,NCI-H1734; first compound 0.02 µM,0.428
same,relative viability,NCI-H1734; first compound 0.06325 µM,0.159
same,relative viability,NCI-H1734; first compound 0.2 µM,0.143
same,relative viability,NCI-H1793; first compound 0.002 µM,0.859
same,relative viability,NCI-H1793; first compound 0.006325 µM,0.741
same,relative viability,NCI-H1793; first compound 0.02 µM,0.294
same,relative viability,NCI-H1793; first compound 0.06325 µM,0.122
same,relative viability,NCI-H1793; first compound 0.2 µM,0.119
same,relative viability,NCI-H1915; first compound 0.002 µM,0.479
same,relative viability,NCI-H1915; first compound 0.006325 µM,0.482
same,relative viability,NCI-H1915; first compound 0.02 µM,0.442
same,relative viability,NCI-H1915; first compound 0.06325 µM,0.312
same,relative viability,NCI-H1915; first compound 0.2 µM,0.0621
same,relative viability,NCI-H1944; first compound 0.002 µM,0.636
same,relative viability,NCI-H1944; first compound 0.006325 µM,0.602
same,relative viability,NCI-H1944; first compound 0.02 µM,0.477
same,relative viability,NCI-H1944; first compound 0.06325 µM,0.258
same,relative viability,NCI-H1944; first compound 0.2 µM,0.149
same,relative viability,NCI-H2009; first compound 0.002 µM,1.16
same,relative viability,NCI-H2009; first compound 0.006325 µM,0.973
same,relative viability,NCI-H2009; first compound 0.02 µM,1.17
same,relative viability,NCI-H2009; first compound 0.06325 µM,0.901
same,relative viability,NCI-H2009; first compound 0.2 µM,0.0692
same,relative viability,NCI-H2023; first compound 0.002 µM,0.28
same,relative viability,NCI-H2023; first compound 0.006325 µM,0.244
same,relative viability,NCI-H2023; first compound 0.02 µM,0.0961
same,relative viability,NCI-H2023; first compound 0.06325 µM,0.071
same,relative viability,NCI-H2023; first compound 0.2 µM,0.0739
same,relative viability,NCI-H2342; first compound 0.002 µM,0.776
same,relative viability,NCI-H2342; first compound 0.006325 µM,0.755
same,relative viability,NCI-H2342; first compound 0.02 µM,0.548
same,relative viability,NCI-H2342; first compound 0.06325 µM,0.749
same,relative viability,NCI-H2342; first compound 0.2 µM,0.454
same,relative viability,NCI-H2347; first compound 0.002 µM,0.402
same,relative viability,NCI-H2347; first compound 0.006325 µM,0.404
same,relative viability,NCI-H2347; first compound 0.02 µM,0.426
same,relative viability,NCI-H2347; first compound 0.06325 µM,0.42
same,relative viability,NCI-H2347; first compound 0.2 µM,0.317
same,relative viability,NCI-H322M; first compound 0.002 µM,0.638
same,relative viability,NCI-H322M; first compound 0.006325 µM,0.507
same,relative viability,NCI-H322M; first compound 0.02 µM,0.596
same,relative viability,NCI-H322M; first compound 0.06325 µM,0.409
same,relative viability,NCI-H322M; first compound 0.2 µM,0.376
same,relative viability,NCI-H358; first compound 0.002 µM,0.186
same,relative viability,NCI-H358; first compound 0.006325 µM,0.16
same,relative viability,NCI-H358; first compound 0.02 µM,0.167
same,relative viability,NCI-H358; first compound 0.06325 µM,0.147
same,relative viability,NCI-H358; first compound 0.2 µM,0.078
same,relative viability,NCI-H441; first compound 0.002 µM,0.263
same,relative viability,NCI-H441; first compound 0.006325 µM,0.309
same,relative viability,NCI-H441; first compound 0.02 µM,0.248
same,relative viability,NCI-H441; first compound 0.06325 µM,0.153
same,relative viability,NCI-H441; first compound 0.2 µM,0.116
same,relative viability,NCI-H522; first compound 0.002 µM,1.01
same,relative viability,NCI-H522; first compound 0.006325 µM,0.974
same,relative viability,NCI-H522; first compound 0.02 µM,0.855
same,relative viability,NCI-H522; first compound 0.06325 µM,0.675
same,relative viability,NCI-H522; first compound 0.2 µM,0.353
same,relative viability,NCI-H647; first compound 0.002 µM,0.202
same,relative viability,NCI-H647; first compound 0.006325 µM,0.189
same,relative viability,NCI-H647; first compound 0.02 µM,0.193
same,relative viability,NCI-H647; first compound 0.06325 µM,0.106
same,relative viability,NCI-H647; first compound 0.2 µM,0.0832
same,relative viability,NCI-H838; first compound 0.002 µM,0.265
same,relative viability,NCI-H838; first compound 0.006325 µM,0.256
same,relative viability,NCI-H838; first compound 0.02 µM,0.284
same,relative viability,NCI-H838; first compound 0.06325 µM,0.141
same,relative viability,NCI-H838; first compound 0.2 µM,0.177
same,relative viability,RERF-LC-KJ; first compound 0.002 µM,0.474
same,relative viability,RERF-LC-KJ; first compound 0.006325 µM,0.449
same,relative viability,RERF-LC-KJ; first compound 0.02 µM,0.462
same,relative viability,RERF-LC-KJ; first compound 0.06325 µM,0.287
same,relative viability,RERF-LC-KJ; first compound 0.2 µM,0.219
same,relative viability,SW 1573; first compound 0.002 µM,0.818
same,relative viability,SW 1573; first compound 0.006325 µM,0.898
same,relative viability,SW 1573; first compound 0.02 µM,0.189
same,relative viability,SW 1573; first compound 0.06325 µM,0.0968
same,relative viability,SW 1573; first compound 0.2 µM,0.0903
same,relative viability,UMC-11; first compound 0.002 µM,0.737
same,relative viability,UMC-11; first compound 0.006325 µM,0.843
same,relative viability,UMC-11; first compound 0.02 µM,0.762
same,relative viability,UMC-11; first compound 0.06325 µM,0.322
same,relative viability,UMC-11; first compound 0.2 µM,0.161
